Experimental data reported in article PMC12150326 (The Journal of Organic Chemistry, 2025).
“And” between values parts separate entries of the source, which are not always exact repeats. Equal entries are not always repeated. Where two headings read alike, the source gives them in different places.

Key:
CCRF-CEM = test system: CCRF-CEM; parameters: method as in NCI-60 database; conditions: CCRF-CEM ref NCI-60 database, cited from earlier work
M14 [1] = test system: M14; parameters: method as in NCI-60 database; conditions: M14 ref NCI-60 database, cited from earlier work
SF-268 = test system: SF-268; parameters: method as in NCI-60 database; conditions: SF-268 ref NCI-60 database, cited from earlier work
DMS 273 = test system: DMS 273; parameters: method as in NCI-60 database; conditions: DMS 273 ref NCI-60 database, cited from earlier work
LXFL 529 = test system: LXFL 529; parameters: method as in NCI-60 database; conditions: LXFL 529 ref NCI-60 database, cited from earlier work
PC-3 = test system: PC-3; parameters: method as in NCI-60 database; conditions: PC-3 ref NCI-60 database, cited from earlier work
A549 = assay: Cell-growth inhibition (CellTiter); type: cell-based, human; conditions: Homo sapiens, A549, 72 h, read-out: Cell Growth Inhibition GI50 ± SE
Description: (§1) Inhibition of cell growth was determined by using standard procedures. Cell lines were obtained from the NCI anticancer drug screen and maintained in DMEM medium supplemented with 10% fetal bovine serum. Growing cells were exposed to serial dilutions of each compound for 3 days. Cell growth was determined with CellTiter Assay Reagent (Promega), and growth parameters, including inhibition of growth, were measured by using the methods specified by the manufacturer.

PC3 = assay: Cell-growth inhibition (CellTiter); type: cell-based, human; conditions: Homo sapiens, PC-3, 72 h, read-out: Cell Growth Inhibition GI50 ± SE
Description: as §1

M14 [2] = assay: Cell-growth inhibition (CellTiter); type: cell-based, human; conditions: Homo sapiens, M14, 72 h, read-out: Cell Growth Inhibition GI50 ± SE
Description: as §1

RXF 393 = test system: RXF 393; parameters: method as in NCI-60 database; conditions: RXF 393 ref NCI-60 database, cited from earlier work
OVCAR-5 = test system: OVCAR-5; parameters: method as in NCI-60 database; conditions: OVCAR-5 ref NCI-60 database, cited from earlier work
MDA-MB-435 = test system: MDA-MB-435; parameters: method as in NCI-60 database; conditions: MDA-MB-435 ref NCI-60 database, cited from earlier work

SMILES: COc1cc2c(c(OC)c1OC)-c1ccc(OC)c(=O)cc1[C@@H](NC(C)=O)CC2 [Colchicine, (−)-Colchicine]
- GI50 (CCRF-CEM): 20 nM
- Log10GI50 (CCRF-CEM): -7.82 Molar
- Log10GI50 (CCRF-CEM; listed as 757/1): -7.39 Molar
- Log10LC50 (CCRF-CEM; listed as 757/9): < -8.00 Molar
- Log10TGI (CCRF-CEM; listed as 757/9): < -8.00 Molar
- Log10GI50 (CCRF-CEM; listed as 757/21): < -8.00 Molar and -7.93 Molar and -7.82 Molar
- Log10LC50 (CCRF-CEM; listed as 757/21): > -4.00 Molar
- Log10TGI (CCRF-CEM; listed as 757/21): > -4.00 Molar
- GI50 (M14 [1]): 55 nM
- Log10GI50 (M14 [1]): -7.26 Molar
- Log10LC50 (M14 [1]): > -4.00 Molar
- Log10GI50 (M14 [1]; listed as 757/9): -7.68 Molar
- Log10TGI (M14 [1]; listed as 757/9): -6.43 Molar
- GI50 (SF-268): 4680 nM
- Log10GI50 (SF-268): -5.33 Molar
- Log10LC50 (SF-268): > -4.00 Molar
- Log10GI50 (SF-268; listed as 757/9): -7.12 Molar
- Log10TGI (SF-268; listed as 757/9): -6.03 Molar
- Log10TGI (SF-268; listed as 757/21): > -4.00 Molar
- Log10LC50 (DMS 273): > -4.00 Molar
- Log10TGI (DMS 273): > -4.00 Molar
- Log10GI50 (DMS 273; listed as 757/1): -7.51 Molar
- Log10GI50 (DMS 273; listed as 757/21): < -8.00 Molar and -7.87 Molar
- Log10LC50 (LXFL 529): > -4.00 Molar
- Log10TGI (LXFL 529): > -4.00 Molar
- Log10GI50 (LXFL 529; listed as 757/21): < -8.00 Molar and -7.80 Molar
- GI50 (PC-3): 24 nM
- Log10GI50 (PC-3): -7.62 Molar
- Log10LC50 (PC-3): > -4.00 Molar
- Log10GI50 (PC-3; listed as 757/9): -7.65 Molar
- Log10TGI (PC-3; listed as 757/9): -6.37 Molar
- Log10GI50 (PC-3; listed as 757/21): -7.62 Molar
- Log10TGI (PC-3; listed as 757/21): > -4.00 Molar
- GI50 (A549): 40 nM
- GI50 (PC3): 20 ± 5 nM
- GI50 (M14 [2]): 10 ± 1 nM
- GI50 (RXF 393): < 10 nM
- Log10GI50 (RXF 393): < -8 Molar
- Log10LC50 (RXF 393): > -4.00 Molar
- Log10GI50 (RXF 393; listed as 757/1): < -8.00 Molar
- Log10TGI (RXF 393; listed as 757/1): > -4.00 Molar
- Log10GI50 (RXF 393; listed as 757/9): -7.93 Molar
- Log10GI50 (RXF 393; listed as 757/21): -7.83 Molar and -7.85 Molar
- GI50 (OVCAR-5): 76 nM
- Log10GI50 (OVCAR-5): -7.12 Molar
- Log10LC50 (OVCAR-5): > -4.00 Molar
- Log10GI50 (OVCAR-5; listed as 757/1): -4.48 Molar
- GI50 (MDA-MB-435): < 10 nM
- Log10GI50 (MDA-MB-435): < -8 Molar
- Log10LC50 (MDA-MB-435; listed as 757/9): < -8.00 Molar
- Log10TGI (MDA-MB-435; listed as 757/9): < -8.00 Molar
- Log10GI50 (MDA-MB-435; listed as 757/21): < -8.00 Molar
- Log10LC50 (MDA-MB-435; listed as 757/21): > -4.00 Molar
- Log10TGI (MDA-MB-435; listed as 757/21): -7.50 Molar
